Experiments:
S. aureus biofilms = assay: Biofilm assay: S. aureus biofilms in 96 well plates or plate inserts, safranin stain or SEM; type: cell-based; conditions: 50 μg/ml in PBS, three hours
[1] = system: biofilms of S. aureus SA113; assay: Kinetic effect on established biofilms: absorbance at 650 nm and safranin staining; type: cell-based; conditions: for absorbance of biofilms at 650 nM: 6.25 μg/ml in PBS
Method: Oxacillin and vancomycin have often been used in antibiotic susceptibility studies of S. aureus biofilms. […] Twenty four-hour biofilms in polystyrene 96-well tissue culture plates were treated with serial dilutions of lysostaphin, oxacillin, and vancomycin (FIG. 7).
In order to examine the kinetic effect of lysostaphin, oxacillin and vancomycin on biofilms, the absorbance of established biofilms in a 96-well tissue culture plate was measured over time (0-3 hrs and 24 hrs). Tissue culture wells containing biofilms of S. aureus SA113 were incubated with serial dilutions of lysostaphin ([…]), oxacillin ([…]), or vancomycin ([…]) for 24 hours, and the absorbance at 650 nm was monitored every 20 minutes for the first 3 hours and then again at 24 hours. The absorbance of the lysostaphin-treated biofilms dropped from approximately 0.35 at time zero to 0.125 after 3 hours of treatment and dropped to near base line (0.04) by 24 hrs when treated with a dose of lysostaphin of 6.25 μg/ml in PBS (FIG. 7). […] Since antimicrobials like oxacillin or vancomycin are effective against actively metabolizing bacteria, a similar experiment was conducted but the biofilms were incubated with the three anti-microbials in bacterial media (TSB). Very similar results were also found when the assay was conducted in TSB rather than PBS.
The capacity of the three agents to disrupt S. aureus biofilms in polystyrene wells can be visualized by comparing the staining intensity of treated wells versus control (buffer-treated) wells.

S. epidermidis biofilms = assay: Disruption of S. epidermidis biofilms on glass chamber slide; type: cell-based; parameters: dose or concentration left out as unconfirmed
Description: Three S. epidermidis strains with various capacities for glycocalyx (slime) production were examined including, S. epidermidis strain Hay (a low slime producer), S. epidermidis strain SEI 175 (a moderate slime producer) and S. epidermidis ATCC 35984 (a high slime producer). All three of these S. epidermidis strains produced biofilms on a glass chamber slide (FIG. 9) with ATCC 35984 producing the thickest and most darkly staining biofilm as expected. […] S. aureus strain SA113 was included in this experiment as a control. […] The stained material visible in lysostaphin treated wells is extracellular glycocalyx which stained pink by safranin and contained no intact gram positive S. epidermidis cells, only cellular debris.

[2] = system: Methicillin Sensitive S. aureus; assay: Treatment of established infection in jugular vein catheterized mice; type: in vivo
Method: (§1) Jugular vein catheterized mice (Charles River Labs) were used. The mice were challenged through the tail vein with S. aureus (10^3-10^4CFU, a much lower dose than the 5×10^6 CFU or greater typically necessary to establish an infection in mice not catheterized). Treatment began four days post challenge when infection was established. Lysostaphin was administered through the indwelling catheter in a volume of 200 μ PBS (in the case of methicillin resistant S. aureus, nafcillin was added to the treatment). After the final treatment of the day, 50 μl of a lock solution (50% sterile glucose solution) with lysostaphin (and nafcillin, when used), added at the same concentration as used for treatment, was put in the catheters. Control mice received equal treatments with PBS and lock solution alone.
(§2) On the day following the last treatment the liver, heart and a portion of the catheter in the heart were harvested. The catheter portions were sonicated to release bacteria.

[3] = system: Methicillin-Resistant S. aureus; assay: as above; type: in vivo
Method: as §1, §2

SA5 [4] = assay: Leaching of lysostaphin off coated surfaces; type: cell-based, S. aureus
Method: Leaching of Lysostaphin. To test whether lysostaphin was slowly being released from the catheter into the lumen solution, lysostaphin coated catheters were incubated with 100 μl PBS for 2 hours at 37° C. The PBS was then transferred into an Eppendorf tube and 10^5 CFU of SA5 was added to the effluent and incubated for 1 hour at 37° C. 40 μl from the samples were streaked onto blood agar plates and incubated overnight at 37° C. Alternatively, lysostaphin coated catheters were incubated with PBS overnight at 37° C. The following morning the PBS was washed out and the catheters were inoculated with ˜5×10^4 CFU/ml SA5 for 2 hours at 37° C. The effluent was then streaked onto blood agar plates and incubated at 37° C. overnight. To look for leaching off the polystyrene surface, the wells were coated with 10, 1 and 0.1 mg/ml lysostaphin for 60 minutes. The wells were then washed, and 300 μl of PBS was added to the wells for 2 hours and then removed 300 μl of a 5×10^4 CFU/ml solution of SA5 was added to the PBS wash and allowed to incubate for one hour at 37° C. 40 μl was then removed and streaked onto a blood agar plate and incubated overnight at 37° C.

SA5 [5] = assay: Adherence of bacteria to catheters; type: cell-based, S. aureus
Method: Adherence of Bacteria to Catheters. Lysostaphin coated catheters were placed in 2 ml of a 0.1 mg/ml solution of lysostaphin for 2 hours with shaking at 37° C. to coat the outside of the catheter. They were then washed and placed in a 5×10^4 CFU/ml solution of SA5 and incubated for 3 hours at 37° C. 40 μl of the bacterial solution was streaked on to blood agar plates and incubated at 37° C. overnight. The catheters were incubated in 2 ml TSB overnight at 37° C. and examined for growth. Untreated catheters were washed with 50 ml PBS and then inoculated with 120 μl of a 5×10^6 CFU/ml solution of bacteria and incubated for 2 or 24 hours. The catheter effluent was then streaked onto blood agar plates and placed at 37° C. overnight. The catheters were washed with 50 ml PBS and the last ml of wash was collected, and 100 μl was streaked onto blood agar plates and incubated at 37° C. overnight. The catheters were then incubated in 1 ml TSB at 37° C. overnight and observed for growth.

S. aureus = assay: Lysostaphin activity on catheters in presence of serum proteins; type: cell-based
[6] = Table 7, MRSA, 20 mg/kg t.i.d. 4 days

**Q.** For lysostaphin, which “biofilm disruption (safranin stain)” value (S. aureus biofilms; S. aureus strain MBT 5040 (MRSA), room temperature) is on record?
**A.** Its value is “completely disrupted”.

**Q.** What about the “biofilm disruption of lysostaphin-resistant strains (safranin stain)” value (S. aureus biofilms; lysostaphin-resistant S. aureus) of the same substance?
**A.** Its value is “failure of lysostaphin to disrupt biofilms”.

**Q.** And the “absorbance of biofilms at 650 nM” value ([1]; 24 hrs)?
**A.** The value was roughly 0.04.

**Q.** What about the “absorbance of biofilms at 650 nM” value ([1]; after 3 hours) of the same substance?
**A.** The value was 0.125.

**Q.** What about the “absorbance of biofilms at 650 nM” value ([1]; time zero) of the same substance?
**A.** The value was “approximately 0.35”.

**Q.** What about the “lowest concentration that cleared biofilms (safranin)” value ([1]; in PBS, 24 hours) of the same substance?
**A.** Its value is 0.8 µg/mL.

**Q.** And the “effect on absorbance of biofilms” value ([1]; in TSB, 24 hours (data not shown))?
**A.** The value was “reduced the absorbance of biofilms to near background”.

**Q.** What about the “effect on absorbance of S. aureus biofilms over time (FIG. 7 legend)” value ([1]; lysostaphin 6.25 cg/ml, vancomycin 800 cg/ml, oxacillin 400 cg/ml) of the same substance?
**A.** Its value is “immediate and continuous drop in the absorbance”.

**Q.** What about the “intact bacteria on surface after treatment (microscopic examination)” value (S. epidermidis biofilms; three hours (data not shown)) of the same substance?
**A.** The value was “no intact bacteria left”.

**Q.** And the “disruption of S. epidermidis biofilms (safranin)” value (S. epidermidis biofilms; three hours, strains Hay, SE1175, ATCC 35984)?
**A.** The value was “disrupted the biofilms of all three strains”.

**Q.** And the “S. aureus biofilm on implanted catheters (SEM, FIG. 6)” value ([2]; jugular vein catheterized mice after treatment)?
**A.** Its value is “cleared the S. aureus biofilm from these catheters”.

**Q.** What about the “dose required for clearance of an established catheter infection” value ([2]; methicillin sensitive S. aureus, t.i.d. for 4 days) of the same substance?
**A.** The value was 20 mg/kg.

**Q.** What about the “S. aureus recovered, Heart” value [3, 6] of the same substance?
**A.** The value was 0 CFU.

**Q.** What about the “S. aureus recovered, Liver” value [3, 6] of the same substance?
**A.** Its value is 0 CFU.

**Q.** What about the “S. aureus recovered, Heart” value ([3]; Table 7, MRSA, 40 mg/kg t.i.d. 4 days) of the same substance?
**A.** The value was 0 CFU.

**Q.** What about the “clearance of the S. aureus infection” value ([3]; lower doses or different dosing regimens (40 mg/kg once then 5 mg/kg; 3 doses of 15 mg/kg then 5 mg/kg)) of the same substance?
**A.** The value was “did not result in complete clearance”.

**Q.** What about the “minimum dose necessary to clear catheters in mice” value ([3]; three times a day for four days) of the same substance?
**A.** The value was 40 mg/kg.

**Q.** And the “CFU (n = 3)” value (SA5 [4]; Angiocath, coating 0.1 mg/ml, saline incubation 2 hr, bacteria added to PBS wash)?
**A.** Its value is 219 CFU.

**Q.** What about the “CFU (n = 3)” value (SA5 [4]; Angiocath, coating 0.1 mg/ml, saline incubation 24 hr, bacteria added to catheter) of the same substance?
**A.** Its value is 0 CFU.

**Q.** What about the “CFU (n = 3)” value (SA5 [4]; Polystyrene, coating 0.1 mg/m, saline incubation 2 hr, killing in wash) of the same substance?
**A.** The value was 291 CFU.

**Q.** What about the “CFU (n = 3)” value (SA5 [4]; Polystyrene, coating 1 mg/ml, saline incubation 2 hr, killing in wash) of the same substance?
**A.** Its value is 33 CFU.

**Q.** And the “CFU (n = 3)” value (SA5 [4]; Polystyrene, coating 10 mg/ml, saline incubation 2 hr, killing in wash)?
**A.** Its value is 26 CFU.

**Q.** And the “reduction in bacterial counts by PBS wash from coated catheters” value (SA5 [4]; bacteria added to PBS wash)?
**A.** The value was “only minimal reduction in bacterial counts”.

**Q.** And the “log reduction in bacterial counts due to leaching” value (SA5 [4]; polystyrene, 0.1 mg/ml coating, PBS wash)?
**A.** Its value is 0.33 log.

**Q.** And the “log reduction of SA5 titers by wash compared to control” value (SA5 [4]; polystyrene, 1 mg/ml coating, PBS wash)?
**A.** Its value is 1.3 log.

**Q.** And the “log reduction of SA5 titers by wash compared to control” value (SA5 [4]; polystyrene, 10 mg/ml coating, PBS wash)?
**A.** Its value is 1.4 log.

**Q.** And the “clearing of bacteria by coated catheters after overnight wash with PBS” value (SA5 [4]; vs 1500 CFU's from untreated catheters)?
**A.** The value was “complete clearing of bacteria”.

**Q.** And the “growth after overnight incubation of catheters in TSB” value (SA5 [5]; after 3 hours in bacterial solution)?
**A.** The value was “the catheters remained sterile”.

**Q.** And the “clearing of bacterial solution by coated catheters” value (SA5 [5]; catheters coated inside and outside, 5×10^4 CFU/ml SA5, 3 hrs)?
**A.** Its value is “cleared the solution”.

**Q.** What about the “reduction in bacterial counts” value (S. aureus; 0.1 mg/ml coated catheters incubated with human serum 24 hours) of the same substance?
**A.** The value was 99%.

**Q.** And the clearing of bacteria (S. aureus; 10 and 1 mg/ml coated catheters incubated with human serum)?
**A.** The clearing of bacteria was “completely cleared the bacteria”.

Source: patent US7572439B2, “Enzyme disruption of bacterial biofilms” (priority 2002, dated 2009)
